≈ marks a conversion by molar mass, not a printed value.
Columns and labels:
Pseudomonas aeruginosa [1] = assay: Antimicrobial activity of the Compound was tested for minimum inhibitory concentration against Pseudomonas aeruginosa 1001; assay type: functional
Staphylococcus aureus [2] = assay: Antimicrobial activity of the Compound was tested for minimum inhibitory concentration against Staphylococcus aureus 56R; assay type: functional
Enterobacter cloacae = assay: Antimicrobial activity of the Compound was tested for minimum inhibitory concentration against Enterobacter cloacae 963; assay type: functional
[3] = test system: Trichophyton interdigitale; assay: Antimicrobial activity of the Compound was tested for minimum inhibitory concentration against Trichophyton interdigitale; assay type: functional
Candida albicans [4] = assay: Antimicrobial activity of the Compound was tested for minimum inhibitory concentration against Candida albicans; assay type: functional
Klebsiella pneumoniae [5] = assay: Antimicrobial activity of the Compound was tested for minimum inhibitory concentration against Klebsiella pneumoniae 846(R); assay type: functional
Staphylococcus aureus [6] = assay: Antimicrobial activity of the Compound was tested for minimum inhibitory concentration against Staphylococcus aureus 209P; assay type: functional
Staphylococcus aureus [7] = assay: Antimicrobial activity of the Compound was tested for minimum inhibitory concentration against Staphylococcus aureus 535 (MRSA); assay type: functional
Salmonella enteritidis = assay: Antimicrobial activity of the Compound was tested for minimum inhibitory concentration against Salmonella enteritidis; assay type: functional, Salmonella enterica subsp. enterica serovar Enteritidis; settings: Salmonella enterica
Pseudomonas aeruginosa [8] = assay: Antimicrobial activity of the Compound was tested for minimum inhibitory concentration against Pseudomonas aeruginosa N07; assay type: functional
Proteus vulgaris = assay: Antimicrobial activity of the Compound was tested for minimum inhibitory concentration against Proteus vulgaris 1420; assay type: functional
Trichophyton rubrum [9] = assay: Antimicrobial activity of the Compound was tested for minimum inhibitory concentration against Trichophyton rubrum; assay type: functional
Klebsiella pneumoniae [10] = assay: Antimicrobial activity of the Compound was tested for minimum inhibitory concentration against Klebsiella pneumoniae 806; assay type: functional
Shigella flexneri [11] = assay: Antimicrobial activity of the Compound was tested for minimum inhibitory concentration against Shigella flexneriII D642; assay type: functional
Enterococcus faecalis = assay: Antimicrobial activity of the Compound was tested for minimum inhibitory concentration against Enterococcus faecalis 681; assay type: functional
Bacillus subtilis = assay: Antimicrobial activity of the Compound was tested for minimum inhibitory concentration against Bacillus subtilis ATCC 6633; assay type: functional
Escherichia coli [12] = assay: Antimicrobial activity of the Compound was tested for minimum inhibitory concentration against Escherichia coli NIHJ; assay type: functional
Escherichia coli [13] = assay: Antimicrobial activity of the Compound was tested for minimum inhibitory concentration against Escherichia coli 609; assay type: functional
Serratia marcescens = assay: Antimicrobial activity of the Compound was tested for minimum inhibitory concentration against Serratia marcescens 1184; assay type: functional
Nannizzia gypsea = assay: Antimicrobial activity of the Compound was tested for minimum inhibitory concentration against Microsporum gypseum 11268; assay type: functional
Mucor mucedo = assay: Antimicrobial activity of the Compound was tested for minimum inhibitory concentration against Mucor mucedo 14358; assay type: functional
Aspergillus fumigatus = assay: Antimicrobial activity of the Compound was tested for minimum inhibitory concentration against Aspergillus fumigatus 10569; assay type: functional
Cryptococcus neoformans = assay: Antimicrobial activity of the Compound was tested for minimum inhibitory concentration against Cryptococcus neoformans 58063; assay type: functional
Candida albicans [14] = assay: Antimicrobial activity of the Compound was tested for minimum inhibitory concentration against Candida albicans SC; assay type: functional
Trichophyton benhamiae [15] = assay: Antimicrobial activity of the Compound was tested for minimum inhibitory concentration against Trichophyton mentagrophytes SC; assay type: functional, Arthroderma benhamiae
Trichophyton benhamiae [16] = assay: Antimicrobial activity of the Compound was tested for minimum inhibitory concentration against Trichophyton mentagrophytes; assay type: functional, Arthroderma benhamiae
Trichophyton rubrum [17] = assay: Antimicrobial activity of the Compound was tested for minimum inhibitory concentration against Trichophyton rubrum SC; assay type: functional
Shigella flexneri [18] = assay: Antimicrobial activity of the Compound was tested for minimum inhibitory concentration against Shigella flexneri IID642; assay type: functional

## C#CC#CC#CC#C/C=C/C=C/C(C)O (racemic)
Pseudomonas aeruginosa [1]
  MIC: > 25 µg/mL
Staphylococcus aureus [2]
  MIC: 0.2 µg/mL (≈ 1.03 µM)
Enterobacter cloacae
  MIC: > 25 µg/mL
[3]
  MIC: 0.8 µg/mL (≈ 4.12 µM)
Candida albicans [4]
  MIC: 1.5 µg/mL (≈ 7.72 µM)
Klebsiella pneumoniae [5]
  MIC: 0.8 µg/mL (≈ 4.12 µM)
Staphylococcus aureus [6]
  MIC: 0.2 µg/mL (≈ 1.03 µM)
Staphylococcus aureus [7]
  MIC: 0.2 µg/mL (≈ 1.03 µM)
Salmonella enteritidis
  MIC: 0.8 µg/mL (≈ 4.12 µM)
Pseudomonas aeruginosa [8]
  MIC: > 25 µg/mL
Proteus vulgaris
  MIC: 0.8 µg/mL (≈ 4.12 µM)
Trichophyton rubrum [9]
  MIC: 0.2 µg/mL (≈ 1.03 µM)
Klebsiella pneumoniae [10]
  MIC: 1.5 µg/mL (≈ 7.72 µM)
Shigella flexneri [11]
  MIC: 0.8 µg/mL (≈ 4.12 µM)
Enterococcus faecalis
  MIC: 3.1 µg/mL (≈ 16 µM)
Bacillus subtilis
  MIC: 0.8 µg/mL (≈ 4.12 µM)
Escherichia coli [12]
  MIC: 0.8 µg/mL (≈ 4.12 µM)
Escherichia coli [13]
  MIC: 0.8 µg/mL (≈ 4.12 µM)
Serratia marcescens
  MIC: 0.8 µg/mL (≈ 4.12 µM)

## C#CC#CC#CC#CC(O)/C=C/C=C/C (configuration not stated)
Pseudomonas aeruginosa [1]
  MIC: > 25 µg/mL
Staphylococcus aureus [2]
  MIC: 0.2 µg/mL (≈ 1.03 µM)
Nannizzia gypsea
  MIC: 0.4 µg/mL (≈ 2.06 µM)
Enterobacter cloacae
  MIC: > 25 µg/mL
[3]
  MIC: < 0.1 µg/mL
Candida albicans [4]
  MIC: 3.1 µg/mL (≈ 16 µM)
Mucor mucedo
  MIC: 0.2 µg/mL (≈ 1.03 µM)
Aspergillus fumigatus
  MIC: 1.5 µg/mL (≈ 7.72 µM)
Klebsiella pneumoniae [5]
  MIC: > 25 µg/mL
Staphylococcus aureus [6]
  MIC: 0.2 µg/mL (≈ 1.03 µM)
Staphylococcus aureus [7]
  MIC: 0.2 µg/mL (≈ 1.03 µM)
Cryptococcus neoformans
  MIC: 0.8 µg/mL (≈ 4.12 µM)
Salmonella enteritidis
  MIC: > 25 µg/mL
Pseudomonas aeruginosa [8]
  MIC: > 25 µg/mL
Candida albicans [14]
  MIC: 3.1 µg/mL (≈ 16 µM)
Proteus vulgaris
  MIC: 0.8 µg/mL (≈ 4.12 µM)
Trichophyton rubrum [9]
  MIC: < 0.1 µg/mL
Klebsiella pneumoniae [10]
  MIC: > 25 µg/mL
Shigella flexneri [11]
  MIC: 0.8 µg/mL (≈ 4.12 µM)
Enterococcus faecalis
  MIC: 3.1 µg/mL (≈ 16 µM)
Bacillus subtilis
  MIC: 0.4 µg/mL (≈ 2.06 µM)
Trichophyton benhamiae [15]
  MIC: < 0.02 µg/mL
Trichophyton benhamiae [16]
  MIC: < 0.1 µg/mL
Escherichia coli [12]
  MIC: > 25 µg/mL
Trichophyton rubrum [17]
  MIC: < 0.02 µg/mL
Escherichia coli [13]
  MIC: > 25 µg/mL
Serratia marcescens
  MIC: > 25 µg/mL

## C#CC#CC#CC#C/C=C/C=C/[C@H](C)O
Pseudomonas aeruginosa [1]
  MIC: > 25 µg/mL
Staphylococcus aureus [2]
  MIC: 0.2 µg/mL (≈ 1.03 µM)
Enterobacter cloacae
  MIC: > 25 µg/mL
[3]
  MIC: 0.4 µg/mL (≈ 2.06 µM)
Candida albicans [4]
  MIC: 1.5 µg/mL (≈ 7.72 µM)
Klebsiella pneumoniae [5]
  MIC: 3.1 µg/mL (≈ 16 µM)
Staphylococcus aureus [6]
  MIC: 0.2 µg/mL (≈ 1.03 µM)
Staphylococcus aureus [7]
  MIC: 0.2 µg/mL (≈ 1.03 µM)
Salmonella enteritidis
  MIC: 3.1 µg/mL (≈ 16 µM)
Pseudomonas aeruginosa [8]
  MIC: > 25 µg/mL
Proteus vulgaris
  MIC: 1.5 µg/mL (≈ 7.72 µM)
Trichophyton rubrum [9]
  MIC: 0.2 µg/mL (≈ 1.03 µM)
Klebsiella pneumoniae [10]
  MIC: > 25 µg/mL
Shigella flexneri [11]
  MIC: 0.8 µg/mL (≈ 4.12 µM)
Enterococcus faecalis
  MIC: 6.2 µg/mL (≈ 31.9 µM)
Bacillus subtilis
  MIC: 0.8 µg/mL (≈ 4.12 µM)
Trichophyton benhamiae [16]
  MIC: 0.4 µg/mL (≈ 2.06 µM)
Escherichia coli [12]
  MIC: 1.5 µg/mL (≈ 7.72 µM)
Escherichia coli [13]
  MIC: 3.1 µg/mL (≈ 16 µM)
Serratia marcescens
  MIC: 1.5 µg/mL (≈ 7.72 µM)

## C#CC#CC#CC#CC1(O)CCCCC1
Pseudomonas aeruginosa [1]
  MIC: > 25 µg/mL
Staphylococcus aureus [2]
  MIC: 1.5 µg/mL (≈ 7.64 µM)
Enterobacter cloacae
  MIC: > 25 µg/mL
[3]
  MIC: 1.5 µg/mL (≈ 7.64 µM)
Candida albicans [4]
  MIC: 6.2 µg/mL (≈ 31.6 µM)
Klebsiella pneumoniae [5]
  MIC: 12.5 µg/mL (≈ 63.7 µM)
Staphylococcus aureus [6]
  MIC: 1.5 µg/mL (≈ 7.64 µM)
Staphylococcus aureus [7]
  MIC: 0.8 µg/mL (≈ 4.08 µM)
Salmonella enteritidis
  MIC: 25 µg/mL (≈ 127 µM)
Pseudomonas aeruginosa [8]
  MIC: > 25 µg/mL
Proteus vulgaris
  MIC: 3.1 µg/mL (≈ 15.8 µM)
Trichophyton rubrum [9]
  MIC: 0.8 µg/mL (≈ 4.08 µM)
Klebsiella pneumoniae [10]
  MIC: > 25 µg/mL
Shigella flexneri [11]
  MIC: 6.2 µg/mL (≈ 31.6 µM)
Enterococcus faecalis
  MIC: 12.5 µg/mL (≈ 63.7 µM)
Bacillus subtilis
  MIC: 6.2 µg/mL (≈ 31.6 µM)
Escherichia coli [12]
  MIC: 25 µg/mL (≈ 127 µM)
Escherichia coli [13]
  MIC: > 25 µg/mL
Serratia marcescens
  MIC: > 25 µg/mL

## C#CC#CC#C/C=C/C=C/C(C)O (configuration not stated)
Pseudomonas aeruginosa [1]
  MIC: > 50 µg/mL
Staphylococcus aureus [2]
  MIC: 0.8 µg/mL (≈ 4.7 µM)
Nannizzia gypsea
  MIC: 0.8 µg/mL (≈ 4.7 µM)
Enterobacter cloacae
  MIC: > 50 µg/mL
[3]
  MIC: 0.8 µg/mL (≈ 4.7 µM)
Candida albicans [4]
  MIC: 1.5 µg/mL (≈ 8.81 µM)
Mucor mucedo
  MIC: 6.2 µg/mL (≈ 36.4 µM)
Aspergillus fumigatus
  MIC: 6.2 µg/mL (≈ 36.4 µM)
Klebsiella pneumoniae [5]
  MIC: 12.5 µg/mL (≈ 73.4 µM)
Shigella flexneri [18]
  MIC: 6.2 µg/mL (≈ 36.4 µM)
Staphylococcus aureus [6]
  MIC: 0.8 µg/mL (≈ 4.7 µM)
Staphylococcus aureus [7]
  MIC: 0.8 µg/mL (≈ 4.7 µM)
Cryptococcus neoformans
  MIC: 1.5 µg/mL (≈ 8.81 µM)
Salmonella enteritidis
  MIC: 25 µg/mL (≈ 147 µM)
Pseudomonas aeruginosa [8]
  MIC: > 50 µg/mL
Candida albicans [14]
  MIC: 1.5 µg/mL (≈ 8.81 µM)
Proteus vulgaris
  MIC: 12.5 µg/mL (≈ 73.4 µM)
Trichophyton rubrum [9]
  MIC: 0.4 µg/mL (≈ 2.35 µM)
Klebsiella pneumoniae [10]
  MIC: > 50 µg/mL
Enterococcus faecalis
  MIC: 12.5 µg/mL (≈ 73.4 µM)
Bacillus subtilis
  MIC: 12.5 µg/mL (≈ 73.4 µM)
Trichophyton benhamiae [15]
  MIC: 0.4 µg/mL (≈ 2.35 µM)
Trichophyton benhamiae [16]
  MIC: 0.8 µg/mL (≈ 4.7 µM)
Escherichia coli [12]
  MIC: 25 µg/mL (≈ 147 µM)
Trichophyton rubrum [17]
  MIC: 0.4 µg/mL (≈ 2.35 µM)
Escherichia coli [13]
  MIC: 25 µg/mL (≈ 147 µM)
Serratia marcescens
  MIC: > 50 µg/mL

## C#CC#CC#CC#C/C=C/C=C/[C@@H](C)O
Pseudomonas aeruginosa [1]
  MIC: > 12.5 µg/mL
Staphylococcus aureus [2]
  MIC: 0.2 µg/mL (≈ 1.03 µM)
Enterobacter cloacae
  MIC: > 12.5 µg/mL
[3]
  MIC: 0.2 µg/mL (≈ 1.03 µM)
Candida albicans [4]
  MIC: 0.8 µg/mL (≈ 4.12 µM)
Klebsiella pneumoniae [5]
  MIC: 0.8 µg/mL (≈ 4.12 µM)
Staphylococcus aureus [6]
  MIC: 0.2 µg/mL (≈ 1.03 µM)
Staphylococcus aureus [7]
  MIC: 0.1 µg/mL (≈ 0.515 µM)
Salmonella enteritidis
  MIC: 0.8 µg/mL (≈ 4.12 µM)
Pseudomonas aeruginosa [8]
  MIC: > 12.5 µg/mL
Proteus vulgaris
  MIC: 0.8 µg/mL (≈ 4.12 µM)
Trichophyton rubrum [9]
  MIC: 0.2 µg/mL (≈ 1.03 µM)
Klebsiella pneumoniae [10]
  MIC: 3.1 µg/mL (≈ 16 µM)
Shigella flexneri [11]
  MIC: 0.4 µg/mL (≈ 2.06 µM)
Enterococcus faecalis
  MIC: 3.1 µg/mL (≈ 16 µM)
Bacillus subtilis
  MIC: 0.8 µg/mL (≈ 4.12 µM)
Trichophyton benhamiae [16]
  MIC: 0.2 µg/mL (≈ 1.03 µM)
Escherichia coli [12]
  MIC: 0.8 µg/mL (≈ 4.12 µM)
Escherichia coli [13]
  MIC: 1.5 µg/mL (≈ 7.72 µM)
Serratia marcescens
  MIC: 0.8 µg/mL (≈ 4.12 µM)

Source: ChEMBL document CHEMBL1128593, “Chemistry and antimicrobial activity of caryoynencins analogs” (1995)
